molecular target: T1, POLγA:G848S (Homo sapiens, UniProt P54098, G848S); assay: DNA polymerization assay, POLγA:G848S mutant; format: biochemical; settings: stimulation of polymerase activity, primed M13mp18 ssDNA, 37° C. 2 hours; read-out: G848S AC50
T1 sequence (P54098 1-1239 G848S): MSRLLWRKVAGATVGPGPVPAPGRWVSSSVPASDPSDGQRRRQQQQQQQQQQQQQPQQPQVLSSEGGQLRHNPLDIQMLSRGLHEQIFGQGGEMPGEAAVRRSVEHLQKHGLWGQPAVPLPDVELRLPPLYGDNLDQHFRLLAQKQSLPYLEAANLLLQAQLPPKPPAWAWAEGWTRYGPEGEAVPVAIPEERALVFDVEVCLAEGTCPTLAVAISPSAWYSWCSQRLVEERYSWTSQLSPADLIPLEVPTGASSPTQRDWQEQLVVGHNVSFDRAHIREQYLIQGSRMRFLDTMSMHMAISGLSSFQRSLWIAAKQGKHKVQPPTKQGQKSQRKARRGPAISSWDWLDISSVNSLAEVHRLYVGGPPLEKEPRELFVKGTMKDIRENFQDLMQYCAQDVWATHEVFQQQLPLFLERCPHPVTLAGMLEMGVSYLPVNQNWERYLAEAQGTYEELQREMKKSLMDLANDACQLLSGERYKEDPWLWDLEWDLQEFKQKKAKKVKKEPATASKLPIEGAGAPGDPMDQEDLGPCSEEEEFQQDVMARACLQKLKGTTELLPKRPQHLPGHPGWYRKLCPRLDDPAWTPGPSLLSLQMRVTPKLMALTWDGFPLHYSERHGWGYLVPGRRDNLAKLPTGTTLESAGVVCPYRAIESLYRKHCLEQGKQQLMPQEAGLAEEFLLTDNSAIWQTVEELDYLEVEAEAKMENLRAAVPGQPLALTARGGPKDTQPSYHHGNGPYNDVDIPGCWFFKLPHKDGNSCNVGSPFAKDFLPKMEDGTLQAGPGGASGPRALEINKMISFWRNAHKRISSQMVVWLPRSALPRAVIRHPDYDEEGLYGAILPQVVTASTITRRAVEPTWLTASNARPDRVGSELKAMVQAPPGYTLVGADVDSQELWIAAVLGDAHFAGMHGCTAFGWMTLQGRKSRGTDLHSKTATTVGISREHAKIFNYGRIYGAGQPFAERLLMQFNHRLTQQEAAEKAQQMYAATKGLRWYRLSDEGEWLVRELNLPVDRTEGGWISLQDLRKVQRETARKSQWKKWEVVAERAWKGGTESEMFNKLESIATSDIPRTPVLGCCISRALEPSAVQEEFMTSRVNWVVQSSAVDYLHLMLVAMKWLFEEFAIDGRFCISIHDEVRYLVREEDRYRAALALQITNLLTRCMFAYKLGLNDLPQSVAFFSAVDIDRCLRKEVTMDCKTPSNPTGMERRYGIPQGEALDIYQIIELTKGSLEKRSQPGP
T1 sequence (Q9UHN1 1-485 partner): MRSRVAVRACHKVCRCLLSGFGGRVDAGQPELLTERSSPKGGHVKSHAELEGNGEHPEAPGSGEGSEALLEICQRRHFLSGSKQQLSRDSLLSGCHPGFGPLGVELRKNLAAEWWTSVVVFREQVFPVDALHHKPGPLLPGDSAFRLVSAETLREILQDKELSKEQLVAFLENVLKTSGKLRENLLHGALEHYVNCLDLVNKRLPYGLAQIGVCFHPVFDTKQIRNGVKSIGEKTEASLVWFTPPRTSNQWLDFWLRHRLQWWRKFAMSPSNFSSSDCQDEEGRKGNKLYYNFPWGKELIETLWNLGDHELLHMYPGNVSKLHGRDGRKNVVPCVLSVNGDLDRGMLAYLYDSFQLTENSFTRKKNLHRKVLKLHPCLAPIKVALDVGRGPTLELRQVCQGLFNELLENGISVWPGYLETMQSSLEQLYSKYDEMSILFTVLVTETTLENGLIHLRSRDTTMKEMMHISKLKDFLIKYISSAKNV

| AC50 [µM] | SMILES |
| --- | --- |
| > 100 | Cc1cc(S(=O)(=O)Nc2ccc3nc(-c4ccccc4)sc3c2)c(C)cc1Cl [Example 74, 4-chloro-2,5-dimethyl-N-(2-phenylbenzo[d]thiazol-6-yl)benzenesulfonamide] |
| 3 | Cc1cc(S(=O)(=O)Nc2cccc(-c3ncc(C4CC4)s3)c2)c(C)cc1Cl [Example 76, 4-chloro-N-(3-(5-cyclopropylthiazol-2-yl)phenyl)-2,5-dimethylbenzenesulfonamide] |
| > 100 | Cc1cc(S(=O)(=O)Nc2ccccc2-c2ncco2)c(C)cc1Cl [Example 77, 4-chloro-2,5-dimethyl-N-(2-(oxazol-2-yl)phenyl)benzenesulfonamide] |
| > 10 | Cc1cnc(-c2ccccc2NS(=O)(=O)c2cc(C)c(Cl)cc2C)s1 [Example 79, 4-chloro-2,5-dimethyl-N-(2-(5-methylthiazol-2-yl)phenyl)benzenesulfonamide] |
| > 10 | Cc1csc(-c2ccccc2NS(=O)(=O)c2cc(C)c(Cl)cc2C)n1 [Example 80, 4-chloro-2,5-dimethyl-N-(2-(4-methylthiazol-2-yl)phenyl)benzenesulfonamide] |
| 2 | Cc1cc(S(=O)(=O)Nc2csc(-c3ccccc3)n2)c(C)cc1Cl [Example 81, 4-chloro-2,5-dimethyl-N-(2-phenylthiazol-4-yl)benzenesulfonamide] |
| 3 | Cc1cnc(-c2ccc(NS(=O)(=O)c3cc(C)c(Cl)cc3C)cc2)s1 [Example 83, 4-chloro-2,5-dimethyl-N-(4-(5-methylthiazol-2-yl)phenyl)benzenesulfonamide] |
| > 10 | Cc1cc(S(=O)(=O)Nc2cc(-c3ccccc3)no2)c(C)cc1Cl [Example 84, 4-chloro-2,5-dimethyl-N-(3-phenylisoxazol-5-yl)benzenesulfonamide] |
| > 100 | Cc1nc2cccc(NS(=O)(=O)c3cc(C)c(Cl)cc3C)c2s1 [Example 85, 4-chloro-2,5-dimethyl-N-(2-methylbenzo[d]thiazol-7-yl)benzenesulfonamide] |
| 3 | Cc1cc(S(=O)(=O)Nc2cccc(-c3ncc(CO)s3)c2)c(C)cc1Cl [Example 89, 4-chloro-N-(3-(5-(hydroxymethyl)thiazol-2-yl)phenyl)-2,5-dimethylbenzenesulfonamide] |
| > 100 | Cc1cc(S(=O)(=O)Nc2cccc(-c3ncc(C(=O)O)s3)c2)c(C)cc1Cl [Example 90, 2-(3-((4-chloro-2,5-dimethylphenyl)sulfonamido)phenyl) thiazole-5-carboxylic acid] |
| 0.9 | Cc1cc(S(=O)(=O)Nc2csc(-c3ccnn3C)n2)c(C)cc1Cl [Example 182, 4-chloro-2,5-dimethyl-N-(2-(1-methyl-1H-pyrazol-5-yl)thiazol-4-yl)benzenesulfonamide] |

Continued, compound first:

| SMILES | AC50 [µM] |
| --- | --- |
| Cc1cc(S(=O)(=O)Nc2ccc3ccn(C)c3c2)c(C)cc1Cl [Example 72, 4-chloro-2,5-dimethyl-N-(1-methyl-1H-indol-6-yl)benzenesulfonamide] | 98 |
| Cc1nc2ccc(NS(=O)(=O)c3cc(C)c(Cl)cc3C)cc2s1 [Example 73, 4-chloro-2,5-dimethyl-N-(2-methylbenzo[d]thiazol-6-yl)benzenesulfonamide] | 14 |
| Cc1nc2cc(NS(=O)(=O)c3cc(C)c(Cl)cc3C)ccc2o1 [Example 75, 4-chloro-2,5-dimethyl-N-(2-methylbenzo[d]oxazol-5-yl)benzenesulfonamide] | > 100 |
| Cc1cnc(-c2cccc(S(=O)(=O)Nc3cc(C)c(Cl)cc3C)c2)s1 [Example 78, N-(4-chloro-2,5-dimethylphenyl)-3-(5-methylthiazol-2-yl)benzenesulfonamide] | > 10 |
| Cc1cc(S(=O)(=O)NC2CCOc3c(Cl)cccc32)c(C)cc1Cl (stereo not drawn) [Example 82, 4-chloro-N-(8-chlorochroman-4-yl)-2,5-dimethylbenzenesulfonamide] | > 10 |
| Cc1cc(S(=O)(=O)Nc2ccc(-c3ncc(CN(C)C)s3)cc2)c(C)cc1Cl [Example 86, 4-chloro-N-(4-(5-((dimethylamino)methyl)thiazol-2-yl)phenyl)-2,5-dimethylbenzenesulfonamide] | > 100 |
| Cc1cc(S(=O)(=O)Nc2cccc(-c3ncc(CN(C)C)s3)c2)c(C)cc1Cl [Example 87, 4-chloro-N-(3-(5-((dimethylamino)methyl)thiazol-2-yl)phenyl)-2,5-dimethylbenzenesulfonamide] | 14 |
| COC(=O)c1cnc(-c2cccc(NS(=O)(=O)c3cc(C)c(Cl)cc3C)c2)s1 [Example 88, methyl 2-(3-((4-chloro-2,5-dimethylphenyl)sulfonamido)phenyl) thiazole-5-carboxylate] | > 100 |
| Cc1cc(S(=O)(=O)Nc2cccc(C(=O)N3CCCN(C(=O)C(C)C)CC3)c2)c(C)cc1Cl [Example 91, 4-chloro-N-(3-(4-isobutyryl-1,4-diazepane-1-carbonyl)phenyl)-2,5-dimethylbenzenesulfonamide] | > 100 |
